Measurements from patent US20170096636A1, “METHODS AND COMPOUNDS FOR PHOTOTHERAPY WITH CHALCOGENORHODAMINE PHOTOSENSITIZERS” (Wake Forest University Health Sciences, priority 2014, published 2017).
“Also recorded” adds a separate entry of the source.

How the values were obtained:
[1] = tested on: cytochrome c oxidase; conditions: whole cells, irradiation; cited from earlier work
[2] = n-octanol / PBS pH 7.4, shake flask
[3] = tested on: immunomagnetically-selected CD3+ cells; assay: Phototoxicity: photodepletion (PD) of CD3+ cells, real-time OCR; assay type: cell-based; conditions: 5.0×10^−8 M 20 minutes, 30 minutes photosensitizer-free, 5 J/cm^2 light
Description: (§1) Selective phototoxicity of Chalcogenorhodamine Photosensitizers. Based on the rapid extrusion kinetics and low potential for toxicity in resting cells, we selected four amide-containing half-julolidine analogues for further analysis (2-S—Cl, 2-Se—Cl, 4-S—Cl, and 4-Se—Cl). These photosensitizers are associated with high singlet oxygen quantum yields (Table I). As a result, very low concentrations of these agents are required for phototherapy. For all PD experiments, immunomagnetically-selected CD3^+ cells were suspended in a photosensitizer-rich media of 5.0×10^−8 M for 20 minutes followed by 30 minutes in a photosensitizer-free media. Cells were then exposed to 5 J/cm^2 of light followed by real-time measurement of OCR and ECAR. […] We next evaluated the effects of PD on cell survival. For these experiments, FACS analysis was performed 18 hours after PD. Cell survival was identified by failure to bind Annexin 5 and 7AAD, and percent survival was calculated as the difference in the absolute number of cells between PD and control (non-PD samples) samples.

[4] = tested on: PBMCs; assay type: cell-based; conditions: SEB 50 ng/mL 72 hours, CFSE
[5] = tested on: resting T cells (CD25−)
[6] = tested on: resting T cells; assay: Dark toxicity: bioenergetics (O2 consumption rate) of resting T cells; conditions: 5.0×10^−7 M
[7] = Fluorescence quantum yield in MeOH; assay type: physicochemical; conditions: quantum yield for fluorescence in MeOH
[8] = tested on: activated T cells (CD25+); assay: PD of activated T cells after SEB stimulation: bioenergetics and survival; assay type: cell-based; conditions: 5×10^−8 M, 5 J/cm^2
Method: To evaluate the differential effects of PD on bioenergetics of activated and resting T cells, immunomagnetically-selected CD25^+ and CD25^− T cells were isolated (>95% purity) after SEB stimulation. PD was then performed, and bioenergetics were measured within 1 hour. The percent of basal OCR devoted to ATP production was determined by comparing basal OCR to baseline OCR (after oligomycin injection). […] Upon exposure to light, the higher concentration of 2-Se—Cl selectively disrupted OXPHOS in activated T cells. To determine whether the selective impedance of basal ATP production affected cell survival, we performed FACS analysis 18 hours after PD (FIG. 5C).

[9] = tested on: HUT-78 cells; assay: Cellular uptake and extrusion of photosensitizer (flow cytometry MFI); assay type: cell-based; conditions: ±SE; for Uptake MFI: 2.5 × 10^−7 M photosensitizer, 20 minutes exposure; for % Extrusion: percent change in MFI after 18 hour extrusion period, 2.5 × 10^−7 M
Method: Cellular Uptake and Extrusion of Chalcogenorhodamine Photosensitizers. […] Cellular uptake of the chalcogenorhodamine photosensitizers was measured after a 20 minute exposure to 2.5×10^−7 M photosensitizer in malignant T cells (HUT-78 cells, Table 2). Transmembrane movement of the photosensitizers in the secretory direction (basolateral to apical) was measured after an 18-h extrusion period. As described above, the Se-containing molecules fluoresced at a lower intensity relative to the S-containing molecules. […] Overall, the PF6^− salts were more slowly extruded from cells relative to the chloride salts of the amide, with a greater difference in the extrusion kinetics noted between the thiorhodamine PF6 salts compared to the selenorhodamine chloride salts.

[10] = Quantum yield for generation of singlet oxygen, time-resolved 1O2 phosphorescence; assay type: physicochemical; conditions: air-saturated MeOH, TMR-Se as reference
[11] = tested on: immunomagnetically-selected CD3+ cells; assay: Phototoxicity: cell survival by FACS (Annexin 5/7AAD) 18 hours after PD; assay type: cell-based; conditions: 5.0×10^−8 M, 5 J/cm^2 light, FACS 18 hours after PD
Description: as §1

[12] = reference value; cited from earlier work
[13] = tested on: MDCK-MDR1 cells; conditions: cited from earlier work
[14] = molecular target: P-gp (Homo sapiens, UniProt P08183); conditions: cited from earlier work
Chain of P-gp (P08183 whole entry): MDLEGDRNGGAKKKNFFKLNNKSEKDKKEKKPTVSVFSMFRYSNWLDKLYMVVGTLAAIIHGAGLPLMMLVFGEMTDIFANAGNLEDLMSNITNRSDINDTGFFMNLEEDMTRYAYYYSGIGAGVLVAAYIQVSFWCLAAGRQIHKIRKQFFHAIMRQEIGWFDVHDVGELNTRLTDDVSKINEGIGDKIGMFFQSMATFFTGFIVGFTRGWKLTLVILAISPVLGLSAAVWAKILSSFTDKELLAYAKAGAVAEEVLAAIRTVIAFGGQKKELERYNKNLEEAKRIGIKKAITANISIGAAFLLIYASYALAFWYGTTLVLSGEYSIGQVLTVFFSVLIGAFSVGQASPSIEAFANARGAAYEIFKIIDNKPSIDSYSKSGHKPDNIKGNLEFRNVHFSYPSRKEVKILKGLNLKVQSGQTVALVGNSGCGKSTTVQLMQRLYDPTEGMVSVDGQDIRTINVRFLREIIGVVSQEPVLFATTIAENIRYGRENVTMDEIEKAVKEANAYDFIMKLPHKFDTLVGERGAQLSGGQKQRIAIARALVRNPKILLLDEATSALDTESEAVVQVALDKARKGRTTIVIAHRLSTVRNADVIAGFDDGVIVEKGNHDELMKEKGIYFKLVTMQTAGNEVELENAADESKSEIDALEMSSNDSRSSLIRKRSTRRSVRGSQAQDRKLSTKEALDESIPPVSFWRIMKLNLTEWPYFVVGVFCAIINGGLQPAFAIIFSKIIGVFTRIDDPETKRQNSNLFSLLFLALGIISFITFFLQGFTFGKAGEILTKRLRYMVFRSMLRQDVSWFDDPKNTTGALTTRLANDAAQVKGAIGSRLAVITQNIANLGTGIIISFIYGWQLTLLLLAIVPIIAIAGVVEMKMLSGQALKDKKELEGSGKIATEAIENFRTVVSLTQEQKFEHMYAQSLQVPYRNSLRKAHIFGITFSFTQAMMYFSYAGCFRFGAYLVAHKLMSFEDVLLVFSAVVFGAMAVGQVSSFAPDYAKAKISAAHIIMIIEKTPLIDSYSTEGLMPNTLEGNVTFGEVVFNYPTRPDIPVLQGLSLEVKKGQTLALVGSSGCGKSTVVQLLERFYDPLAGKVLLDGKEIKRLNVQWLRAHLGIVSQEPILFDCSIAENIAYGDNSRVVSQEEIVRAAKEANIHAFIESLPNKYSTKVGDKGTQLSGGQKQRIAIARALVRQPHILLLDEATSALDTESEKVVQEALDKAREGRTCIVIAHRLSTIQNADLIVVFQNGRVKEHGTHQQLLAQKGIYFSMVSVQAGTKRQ

[15] = physchem; conditions: n-octanol/phosphate buffered saline, pH 7.4

| Compound | cytochrome c oxidase activity in irradiated treated cells [1] | log P [2] | effect of PD on basal OCR [3] | ΦF, MeOH [7] | Uptake MFI [9] | % Extrusion [9] | Φ(^1O2), MeOH [10] | cell death after PD [11] | further results |
| --- | --- | --- | --- | --- | --- | --- | --- | --- | --- |
| CN(C)c1ccc2c(-c3ccccc3)c3ccc(=[N+](C)C)cc-3sc2c1.[Cl-] [TMR-S] | light fluence-dependent inhibition of cytochrome c oxidase activity |  |  |  |  |  |  |  |  |
| CN1CCC(C)(C)c2cc3c(-c4ccc(C(=O)N5CCCCC5)s4)c4ccc(=[N+](C)C)cc-4[se]c3cc21.[Cl-] [2-Se—Cl, N-methyl-N-(1,4,4-trimethyl-6-(5-(piperidine-1-carbonyl)thiophen-2-yl)-3,4-dihydro-1H-selenochromeno[3,2-g]quinolin-9(2H)-ylidene)methanaminium Chloride] |  | 2.23 ± 0.04 | did not significantly impede the basal OCR | 0.009 ± 0.001 | 6536 | 92.17 (±1.09) % | 0.48±0.03 | minimal cell death | response to TSST-1 after PD ([4]; challenge with TSST-1, 6 days): a robust response was observed; proliferation in response to SEB after PD ([4]; rechallenge with SEB, 6 days): no proliferation occurred; aerobic glycolysis after PD [5]: not affecting aerobic glycolysis of either population; cell death in resting T cell population [5]: minimal to no cell death; dark toxicity [6]: not associated with any significant dark toxicity; also recorded: minimal toxicity; activated T cells eliminated from culture ([8]; FACS 18 hours after PD): Greater than 90%; aerobic glycolysis after PD ([8]; activated T cells): not affecting aerobic glycolysis of either population; OXPHOS associated ATP production after PD ([8]; activated T cells, within 1 hour): significantly impeded |
| CN(C)c1ccc2c(-c3ccccc3)c3ccc(=[N+](C)C)cc-3[se]c2c1.[Cl-] [TMR-Se] | light fluence-dependent inhibition of cytochrome c oxidase activity |  |  |  |  |  |  |  | Φ(^1O2) of reference [12]: 0.87 |
| CCN(CC)C(=O)c1ccc(-c2c3ccc(N(C)C)cc3[s+]c3c4c5c(cc23)CCCN5CCC4)s1.F[P-](F)(F)(F)(F)F [8-S—PF6] |  | 1.4 |  |  | 128000 | 79.40 (±1.56) % |  |  | PBA [13]: 210 nm/s; effect on ATPase activity in P-gp [14]: stimulate ATPase activity |
| CCN(CC)C(=O)c1ccc(-c2c3ccc(N(C)C)cc3[se+]c3c4c5c(cc23)CCCN5CCC4)s1.[Cl-] [8-Se—Cl, 12-(Dimethylamino)-2,3,6,7-tetrahydro-9-(5-(diethylcarbamoyl)-thiophen-2-yl)-1H,5H-selenoxantheno[2,3,4-ij]quinolizin-14-ium Chloride] |  |  |  |  | 19365 | 83.05 (±1.78) % |  |  | logP [15]: 2.87 ± 0.01; melting point: 150 to 152 °C |
| CCN(CC)C(=O)c1ccc(-c2c3ccc(=[N+](C)C)cc-3[se]c3cc4c(cc23)C(C)(C)CCN4C)s1.[Cl-] [4-Se—Cl, N-(6-(5-(diethylcarbamoyl)thiophen-2-yl)-1,4,4-trimethyl-3,4-dihydro-1H-selenochromeno-[3,2-g]quinolin-9(2H)-ylidene)-N-methylmethanaminium Chloride] |  | 2.26 ± 0.04 | did not significantly impede the basal OCR | 0.009 ± 0.001 | 5209 | 92.24 (±0.69) % | 0.50 ± 0.03 | minimal cell death |  |
